Results as given in patent publication US9770423B2, “Modulation sAPP, sAAPα and BDNF levels in individuals diagnosed with FXS and ASD” (Indiana University Research and Technology Corp., priority 2012, dated 2017).
Where “and” joins values, the source holds several entries; their conditions need not be identical. Equal entries are not always repeated.

Tests used:
[1] = test system: youth with Fragile X Syndrome (FXS); experiment: 10-week open-label trial of acamprosate in youth with FXS: behavioral outcome measures; assay type: in vivo, human; settings: for Aberrant Behavior Checklist-Social Avoidance (ABC-SA), end point mean ± SD: baseline 3.3 ± 2.6, p 0.01; for Clinical Global Impressions-Severity (CGI-S), end point mean ± SD: baseline 4.25 ± 0.45; for Clinical Global Impressions-Severity (CGI-S), end point mean ± SD / ADHD Rating Scale 4th Edition (ADHD-RS), end point mean ± SD: p <0.0001; for Aberrant Behavior Checklist-Social Withdrawal (ABC-SW), end point mean ± SD: baseline 8.8 ± 5.8, p 0.04 (Table 2), baseline 7.33 ± 5.2, p 0.014 (Table 5); for Aberrant Behavior Checklist-Hyperactivity (ABC-H), end point mean ± SD: baseline 16.8 ± 9.1, p 0.009; for ADHD Rating Scale 4th Edition (ADHD-RS), end point mean ± SD: baseline 23.6 ± 10.6; for Vineland Adaptive Behavior Scale (VABS) Communication Domain, end point mean ± SD: baseline 63.4 ± 10.1, p 0.03; for VABS Expressive Communication Subdomain, end point mean ± SD: baseline 69.8 ± 23.0, p 0.003; for Social Responsiveness Scale total score (SRS), end point mean ± SD: baseline 91.3 ± 27.4, p 0.005
Text: The Institutional Review Board (IRB) at an academic medical center approved this study. Thirteen outpatient males and females aged 5 to 17 years with body weight 15 kg were recruited for this study. Written informed consent was obtained from each participant's legal guardian (parent for all children in this report), and subjects provided assent when able. Diagnosis of FXS was confirmed by Southern Blot and PCR results consistent with a greater than 200 CGG repeat expansion in the FMR1 gene with at least partial gene methylation. Subjects had to be free of other significant medical conditions. The concomitant use of psychotropic drugs that are not thought to impact glutamate neurotransmission were allowed so long as the patients experienced stable dosing at least 4 weeks prior to baseline. Subjects were required to have a mental age of greater than 18 months as determined by the Stanford-Binet 5th Edition. Additional inclusion criteria included a CGI-S(Guy 1976) score of at least 4 (“Moderately Ill”). Subjects with a Diagnostic and Statistical Manual of Mental Disorders, 4th Edition, Text Revision (DSM-IV-TR) diagnosis of a psychotic disorder, bipolar disorder, or substance use disorder were excluded from the study. Additionally, subjects with a positive urine pregnancy test, creatinine clearance of <30, active seizure disorder, or other significant medical condition were excluded.
A 10-week, prospective, open-label study design was chosen to gather pilot data for potential future larger-scale, double-blind, placebo-controlled studies in this population.
All subjects underwent a screening and baseline visit followed by follow-up visits every 2 weeks during the 10-week open-label trial period. At the end of weeks 1, 3, and 5 the investigators called the parent to assess drug tolerability and to make dose adjustments as indicated. All subjects received 333 mg/day of acamprosate during the first week of the study. The investigators then increased the dosage to a maximum of 1,998 mg/day (weight>50 kg) or 1,332 mg/day (weight<50 kg) over the first six weeks of the study, if optimal clinical response (CGI-I equal to 1 “very much improved”) had not occurred and intolerable adverse effects had not emerged. The dose maintenance phase lasted 4 weeks at the optimal dosage.
The CGI-S assessment was administered at screen and at baseline as part of the eligibility criteria described above. In this study, the rater scored the CGI-S in regard to severity of symptoms commonly noted in FXS including, but not limited to, inattention/hyperactivity, social impairment, communication impairment, repetitive behavior, irritability, and anxiety. The CGI-S is rated on a scale from 1 to 7 (1=normal, not ill at all; 2=borderline ill; 3=mildly ill; 4=moderately ill; 5=markedly ill; 6=severely ill; 7=among the most extremely ill patients with FXS). The Autism Diagnostic Observation Schedule (ADOS) (Lord, Rutter et al. 1989) was administered at baseline to characterize potential concomitant ASD diagnosis.
The primary outcome measure was the CGI-I. The CGI-I is a scale designed to assess global change from baseline. […] Treatment response was defined by a CGI-I score of 1 “very much improved” or 2 “much improved.” In this study, the CGI-I was utilized as a general global primary outcome measure given the uncertainty as to what specific symptoms/behaviors associated with FXS may be expected to improve or worsen with use of acamprosate. The CGI-I was administered at all visits after baseline.
Secondary outcome measures included all subscales of the ABC (Irritability, Social Withdrawal, Stereotypy, Hyperactivity, and Inappropriate Speech). The ABC is an informant-rated (primary caregiver) measure with confirmed reliability and validity with regard to factor structure, distribution of scores, and sensitivity to change in persons with developmental disability (Aman, Singh et al. 1985). […]

[2] = test system: youths symptomatic for an autistic disorder; settings: mean dose 1,110 mg/day, 10 to 30 weeks; cited from earlier work
[3] = test system: leptin, beta endorphin, cortisol; settings: humans with alcohol dependence; cited from earlier work
[4] = test system: extracellular dopamine levels in the nucleus accumbens; settings: rats; dependent on glycine receptor activation; cited from earlier work
[5] = test system: drinking-in-the-dark mouse model; settings: cited from earlier work
NMDA glutamate receptor = settings: animal studies; cited from earlier work
[6] = test system: glutamate or GABA receptors subtypes; settings: xenopus oocyte model, clinically relevant concentrations; cited from earlier work
[7] = FXS, 10 weeks, listed as Acamprosate
[8] = baseline to endpoint, FXS, p=0.01
[9] = mean change from baseline to endpoint divided by SD at baseline, FXS

For `CC(=O)NCCCS(=O)(=O)O.[Ca]` [acamprosate, Calcium Acetylhomotaurine], the “treatment responders (CGI-I score of 1 or 2)” value ([1]; 12 youth with FXS, 10 weeks, mean final dose 1054 mg/day) was 75%, the “mean CGI-I at endpoint” value ([1]; 12 youth with FXS, scale 1-7) was 1.9 and the “mean CGI-I values for the responders at week 10” value ([1]; FXS trial, week 10) was 1.92. The “PPVT scores, change with treatment” value ([1]; FXS, 10 weeks) was “did not significantly change”, the “SRS Social Awareness and Autistic Mannerisms subscales, change with treatment” value ([1]; FXS, 10 weeks) was “Improvement was not noted” and the “other VABS domains, change with treatment” value ([1]; FXS, 10 weeks) was “No other changes with treatment were noted”. The “other subscales of the ABC and the CY-BOCS-PDD, change during treatment” value ([1]; FXS, 10 weeks) was “did not change significantly”, the “Aberrant Behavior Checklist-Social Avoidance (ABC-SA), end point mean ± SD” value ([1]; FXS, 10 weeks) was 1.6 and the “Aberrant Behavior Checklist-Social Avoidance (ABC-SA), end point mean ± SD” value [1, 7] was 1.6 ± 2.7. The “Clinical Global Impressions-Severity (CGI-S), end point mean ± SD” value ([1]; FXS, 10 weeks) was 3.33, the “Clinical Global Impressions-Severity (CGI-S), end point mean ± SD” value [1, 7] was 3.33 ± 0.5 and 3.33 ± 0.49 and the “Aberrant Behavior Checklist-Inappropriate Speech (ABC-IS), end point mean ± SD” value ([1]; FXS, 10 weeks, baseline 5.2 ± 3.5, p 0.61) was 4.8 ± 3.4. The “Aberrant Behavior Checklist-Stereotypy (ABC-S), end point mean ± SD” value ([1]; FXS, 10 weeks, baseline 6.8 ± 6.8, p 0.09) was 6 ± 6.3, the “Aberrant Behavior Checklist-Social Withdrawal (ABC-SW), end point mean ± SD” value ([1]; FXS, 10 weeks) was 4.1 and the “Aberrant Behavior Checklist-Social Withdrawal (ABC-SW), end point mean ± SD” value [1, 7] was 4.1 ± 6.5. The “Aberrant Behavior Checklist-Irritability (ABC-I), end point mean ± SD” value ([1]; FXS, 10 weeks, baseline 9.9 ± 7.8, p 0.11) was 7.0 ± 8.9, the “Children's Yale-Brown Obsessive Compulsive Scale Modified for PDD (CY-BOCS-PDD), end point mean ± SD” value ([1]; FXS, 10 weeks, baseline 11.1 ± 2.6, p 0.15) was 9.8 ± 4.1 and the “Aberrant Behavior Checklist-Hyperactivity (ABC-H), end point mean ± SD” value ([1]; FXS, 10 weeks) was 11.0. For the same compound, the “Aberrant Behavior Checklist-Hyperactivity (ABC-H), end point mean ± SD” value [1, 7] was 11.0 ± 8.6, the “ADHD Rating Scale 4th Edition (ADHD-RS), end point mean ± SD” value ([1]; FXS, 10 weeks) was 16.7 and the “ADHD Rating Scale 4th Edition (ADHD-RS), end point mean ± SD” value [1, 7] was 16.7 ± 8. For the same compound, the “Vineland Adaptive Behavior Scale (VABS) Communication Domain, end point mean ± SD” value ([1]; FXS, 10 weeks) was 66.6, the “Vineland Adaptive Behavior Scale (VABS) Communication Domain, end point mean ± SD” value [1, 7] was 66.6 ± 11.2 and the “VABS Expressive Communication Subdomain, end point mean ± SD” value ([1]; FXS, 10 weeks) was 78.9. For the same compound, the “VABS Expressive Communication Subdomain, end point mean ± SD” value [1, 7] was 78.9 ± 21.2, the “Peabody Picture Vocabulary Test (PPVT), end point mean ± SD” value ([1]; FXS, 10 weeks, baseline 85.2 ± 32.0, p 0.53) was 83.3 ± 32 and the “Social Responsiveness Scale total score (SRS), end point mean ± SD” value ([1]; FXS, 10 weeks) was 76.4. The “Social Responsiveness Scale total score (SRS), end point mean ± SD” value [1, 7] was 76.4 ± 26.8 and 76.42 ± 26.8, the “decline of mean ABC-H score” value ([1]; baseline to endpoint, FXS) was 35% and the “decline of mean ABC-SA score” value ([1]; baseline to endpoint, FXS) was 51%. The “decline of mean ABC-SW score” value ([1]; baseline to endpoint, FXS) was 53%, the “decline of mean ADHD-RS score” value ([1]; baseline to endpoint, FXS) was 29% and the “decline of mean total SRS raw score” value ([1]; baseline to endpoint, FXS) was 16%. The “improvement of mean VABS Communication Domain standard score” value ([1]; baseline to endpoint, FXS) was 5%, the “improvement of mean VABS Expressive Communication score” value ([1]; baseline to endpoint, FXS) was 13% and the “decline of SRS Social Motivation subscale” value ([1]; baseline to endpoint, FXS, p=0.003) was 28%. The “decline of SRS Social Cognition subscale” value [1, 8] was 19%, the “decline of SRS Social Communication subscale” value [1, 8] was 14% and the “Effect Size, ABC-H” value [1, 9] was 0.64. The “Effect Size, ABC-SA” value [1, 9] was 0.64, the “Effect Size, ABC-SW” value [1, 9] was 0.81 and the “Effect Size, ADHD-RS” value [1, 9] was 0.65. The “Effect Size, CGI-S” value [1, 9] was 2.0, the “Effect Size, SRS total score” value [1, 9] was 0.54 and the “Effect Size, VABS Communication Domain” value [1, 9] was 0.3. The “Effect Size, VABS Expressive Communication Subdomain” value [1, 9] was 0.4, the “Effect Size, VABS Communication Domain” value ([1]; mean change from baseline to endpoint divided by SD at baseline, FXS, listed as Acamprosate) was 0.32 and the “treatment responders, number of subjects” value ([1]; of 12 youth with FXS) was 9. For the same compound, the “youths judged treatment responders” value [2] was “five of six”, the hormone levels [3] was “lowers levels of several hormones: leptin, beta endorphin, cortisol” and the “extracellular dopamine levels in the nucleus accumbens” value [4] was “elevates extracellular dopamine levels”. The alcohol intake [5] was “reduced alcohol intake”, the “action at the NMDA glutamate receptor” value (NMDA glutamate receptor) was “bind and act as an antagonist” and the “direct binding to glutamate or GABA receptors subtypes” value [6] was “no direct binding”.
